Test results reported in patent US12509714B2, “Multiple heteroresistance to guide combination antibiotic regimens” (priority 2018, dated 2025).
Entries after “also recorded” stand apart in the source; their conditions may differ. Read-outs that look alike come from different tables or passages of the source.

Legend:
[1] = test system: pan-resistant Klebsiella pneumoniae isolate Nevada-2016; type: cell-based
Procedure: (§1) Population analysis profile. Population analysis profiles (PAPs) were conducted. Briefly, solid agar plates were made for each antibiotic at 7 concentrations containing 0, 0.125, 0.25, 0.5, 1, 2 and 4 times the breakpoint, using Mueller Hinton agar. Breakpoint concentrations for Enterobacteriaceae from CLSI (amikacin 64 ug/mL, gentamicin 16 ug/mL, tobramycin 16 ug/mL, ampicillin 32 ug/mL, aztreonam 16 ug/mL, cefazolin 32 ug/mL, cefepime 16 ug/mL, ceftazidime 16 ug/mL, meropenem 4 ug/mL, piperacillin/tazobactam 128/4 ug/mL, ciprofloxacin 1 ug/mL, fosfomycin 256 ug/mL (breakpoint for UPEC; 25 mg/L glucose-6-phosphate added to the media), tetracycline 16 ug/mL, trimethoprim/sulfamethoxazole 4/76 ug/mL), FDA (tigecycline 8 ug/mL), or EUCAST (colistin 4 ug/mL) were used. Dual PAPs were made similarly, with both drugs in each plate at the same multiple of their respective breakpoint (0, 0.125, 0.25, 0.5, 1, 2, 4 times the breakpoint). Isolates to be tested were grown up overnight in Mueller Hinton broth from a single colony isolated from a frozen stock. Serial microdilutions were plated at each concentration of antibiotic. Colonies were enumerated after overnight growth at 37° C. An isolate was classified as resistant if the number of colonies that grew at the breakpoint concentration were at least 50% of those that grew on antibiotic free plates. If an isolate was not resistant, it was classified as heteroresistant if the number of colonies that grew at 2 or 4 times the breakpoint were at least 0.0001% (1 in 10^6) of those that grew on antibiotic free plates. If isolates were neither classified as resistant or heteroresistant, they were classified as susceptible.

[2] = test system: pan-resistant Klebsiella pneumoniae isolate AR0040; type: cell-based; conditions: amikacin 64 μg/mL; piperacillin 256 μg/mL tazobactam 4 μg/mL
Procedure: (§2) Time kills. Time kills were conducted. Briefly, 10^6 CFU/mL bacteria from an overnight culture were inoculated into 2 mL MH media in culture tubes (Globe Scientific) with and without antibiotic(s). The following concentrations were used: colistin 16 μg/mL, ceftazidime 128 μg/mL, fosfomycin 256 μg/mL (+25 mg/L Glucose-6-Phosphate (G6P)), ampicillin 128 μg/mL (FIG. 1e-h and Supplementary FIG. 2), fosfomycin 256 μg/mL (+25 mg/L G6P), trimethoprim 4 μg/mL sulfamethoxazole 76 μg/mL, amikacin 64 μg/mL, and piperacillin 256 μg/mL tazobactam 4 μg/mL (FIGS. 5C, D, G, H). Cultures were incubated at 37° C. shaking at 250 RPM for 1-48 hours. CFU were determined by serial diluting bacteria in PBS prior to plating on MH agar plates at various timepoints in the assay (0, 1, 2, 4, 6, 8, 10, 24, and 48 hour timepoints were used for time-kills). In FIG. 1E-H, serially diluted bacteria were also plated on MH agar plates with antibiotic added (colistin 16 μg/mL, ceftazidime128 μg/mL, fosfomycin 256 μg/mL(+25 mg/L G6P), and ampicillin 128 μg/mL). In FIGS. 5D, H culture tubes were imaged with a Canon EOS Rebel T3i.

[3] = test system: Enterobacter cloacae isolate Mu208; type: cell-based; conditions: for resistance status of Mu208 by PAP: Mueller Hinton agar, 0-4 times the breakpoint
Procedure: as §1

[4] = test system: Enterobacter cloacae isolate Mu208; type: cell-based; conditions: for initial reduction in bacterial levels: ceftazidime 128, ampicillin 128 μg/mL
Procedure: as §2

[5] = test system: Enterobacter cloacae isolate Mu208; test: Frequency of resistant subpopulations of Mu208 on antibiotic treatment and after subculture without antibiotic; type: cell-based; conditions: for frequency of the respective resistant subpopulation on treatment: in the presence of the antibiotic; for frequency of resistant subpopulation upon subculture in the absence of antibiotic: antibiotic-free subculture
[6] = test system: carbapenem-resistant Enterobacteriaceae (CRE) clinical isolates; test: PAP screen of 104 CRE clinical isolates for heteroresistance to 16 antibiotics; type: cell-based; conditions: 104 CRE isolates
Procedure: as §1, with “If an isolate was not resistant, it was classified as heteroresistant if the number of colonies that grew at 2 or 4 times the breakpoint were at least 0.0001% (1 in 10^6) of those that grew on antibiotic free plates. If isolates were neither classified as resistant or heteroresistant, they were classified as susceptible.” left out

[7] = test system: Mu1176; test: Control isolate Mu1176, resistance designation; type: cell-based
From the text: (§3) Bacterial isolates. Enterobacter cloacae isolate Mu208 was isolated from a urine sample at an Atlanta area hospital. […] Carbapenem-resistant Enterobacteriaceae (CRE) were collected between 2013 and 2015 by the Georgia EIP MuGSI. The CDC for provided pan-resistant Klebsiella pneumoniae isolates AR0040 and Nevada-2016.

[8] = test system: Mu661; test: Control isolate Mu661, resistance designation; type: cell-based
From the text: as §3

[9] = test system: Mu712
From the text: as §3

[10] = test system: pan-resistant Klebsiella pneumoniae isolate Nevada-2016; type: cell-based; conditions: breakpoint concentration
Procedure: as §2

[11] = test system: Mu819; test: Susceptible control isolate Mu819 (designation, PAP, time kill); type: cell-based
Procedure: as §3, §1
as §2, with “Cultures were incubated at 37° C. shaking at 250 RPM for 1-48 hours.” left out, “In FIG. 1E-H, serially diluted bacteria were also plated on MH agar plates with antibiotic added (colistin 16 μg/mL, ceftazidime128 μg/mL, fosfomycin 256 μg/mL(+25 mg/L G6P), and ampicillin 128 μg/mL). In FIGS. 5D, H culture tubes were imaged with a Canon EOS Rebel T3i.” left out

[12] = test system: Mu208 ΔphoQ; test: Resistant subpopulations in the Mu208 phoQ deletion mutant; type: cell-based, Enterobacter cloacae; conditions: compared with parental Mu208
From the text: Colistin heteroresistance in Enterobacter requires the two-component system histidine kinase PhoQ which we deleted from Mu208 to test whether colistin heteroresistance was linked to ceftazidime or fosfomycin heteroresistance.
Cloning and mutagenesis. Mu208 ΔphoQ was generated by lambda red recombination. Briefly, a kanamycin cassette flanked by FRT sites with homology to the regions directly upstream and downstream, respectively, of the phoQ open reading frame (ORF) was inserted into the phoQ ORF in Mu208 with pKD46-tet, prior to it being removed with a flp recombinase encoded on the temperature sensitive plasmid, PCP20.

[13] = colistin 16, ceftazidime 128, fosfomycin 256 μg/mL

Molecule	resistance status of Mu208 by PAP [3]	initial reduction in bacterial levels ([4]; single antibiotic)	frequency of the respective resistant subpopulation on treatment [5]	proportion of the isolates exhibiting heteroresistance [6] [%]	resistance designation of control isolate Mu1176 [7]	activity in combination with ampicillin [3]	activity in combination with ampicillin [4]	frequency of resistant subpopulation upon subculture in the absence of antibiotic [5]	concentration at which the resistant subpopulation survived ([3]; PAP) [fold the breakpoint]	behaviour of resistant subpopulation / outgrowth in the presence of the single antibiotic [4, 13]	resistance designation of control isolate Mu819 [11]	further results
NCC[C@H](O)C(=O)N[C@@H]1C[C@H](N)[C@@H](O[C@H]2O[C@H](CN)[C@@H](O)[C@H](O)[C@H]2O)[C@H](O)[C@H]1O[C@H]1O[C@H](CO)[C@@H](O)[C@H](N)[C@H]1O [amikacin]												resistance status of Nevada-2016 by PAP [1]: homogenous resistance; initial killing of AR0040 by single drug [2]: significant initial killing
CC1(C)S[C@@H]2[C@H](NC(=O)[C@H](N)c3ccccc3)C(=O)N2[C@H]1C(=O)O [ampicillin]	homogenous resistance	did not lead to the initial reduction in bacterial levels	constant	1.0	resistant							killing of cells in PAP ([3]; any of the concentrations tested): lack of significant killing; resistance designation of control isolate Mu661 [8]: susceptible
CC(C)(O/N=C(\C(=O)N[C@@H]1C(=O)N2C(C(=O)[O-])=C(C[n+]3ccccc3)CS[C@H]12)c1csc(N)n1)C(=O)O [ceftazidime]	heteroresistance	killing was delayed	robust increase		resistant	not enhanced	not enhanced	returned to the baseline levels				concentration at which the resistant subpopulation survived [3]: 4 fold the breakpoint; behaviour of resistant subpopulation / outgrowth in the presence of the single antibiotic [4]: rapidly increased in number; also recorded: unable to prevent subsequent outgrowth; resistance designation of control isolate Mu712 [9]: susceptible
C[C@@H]1O[C@@H]1P(=O)(O)O [fosfomycin]	heteroresistance		robust increase	72.1	resistant	not enhanced	not enhanced	returned to the baseline levels	4	rapidly increased in number; also recorded: unable to prevent subsequent outgrowth	susceptible	killing of Nevada-2016 by single antibiotic [10]: killing of a significant proportion of the bacteria
colistin	heteroresistance		robust increase		resistant			returned to the baseline levels	4	expanded exponentially	susceptible	MIC of resistant subpopulation relative to the susceptible cells in the population ([3]; PAP): at least 32 fold; Mu208 cells killed by a concentration below the clinical breakpoint ([3]; PAP): Roughly 4 logs; activity in combination with ampicillin ([3]; dual PAP with ampicillin): not enhanced; behaviour of resistant subpopulation / outgrowth in the presence of the single antibiotic ([4]; colistin 16, ceftazidime 128, fosfomycin 256 μg/mL, listed as Colistin): unable to prevent subsequent outgrowth; time within which the susceptible cells were killed ([4]; single antibiotic, colistin 16 μg/mL): one; activity in combination with ampicillin ([4]; time-kill with ampicillin): not enhanced; resistant subpopulation in the phoQ mutant [12]: absent; killing of representative susceptible isolate in PAP ([11]; concentration below the breakpoint, isolate not named at b160, Mu819): all the cells of a representative susceptible isolate were killed; outcome of treatment of a susceptible strain in time kill ([11]; strain not named at b162, Mu819): eradicated
